Measurements published in patent US9067930B2, “2-oxo-piperidinyl derivatives” (UCB Pharma, S.A., priority 2011, dated 2015).

Assays:
[1] = test system: dural protein extravasation induced by electrical stimulation of the trigeminal ganglion; assay: Plasma protein extravasation (PPE) / dural extravasation model of migraine; assay type: in vivo; details: rat
Excerpt: 5-HT7 antagonists are expected to have efficacy in the prophylactic (and potentially acute) treatment of migraine by: • 1) Preventing serotonin-induced vasodilatation of cranial blood vessels (Matthys, A., et al., Role of the 5-HT7 receptor in the central nervous system: from current status to future perspectives. Molecular Neurobiology, 2011; Leopoldo, M., et al., Serotonin 5-HT7 receptor agents: Structure-activity relationships and potential therapeutic applications in central nervous system disorders. Pharmacology & Therapeutics, 2011, 129, 120-148; Hedlund, P. B., The 5-HT7 receptor and disorders of the nervous system: an overview. Psychopharmacology, 2009, 206, 345-354). Contrary to the triptans, 5-HT7 antagonists would only reverse a pre-existing vasodilatation, without producing vasoconstriction by themselves. This would make 5-HT7 antagonists, in contrast to triptans, compatible with chronic use and therefore with prophylactic treatment. • 2) By inhibiting peripheral and central sensitization. […] In this rat model of migraine, dural protein extravasation is induced by electrical stimulation of the trigeminal ganglion. […]
The level of fluorescence in dura maters ipsi- and contra-lateral to the trigeminal ganglia stimulation is quantified with a digital camera (Hamamatsu C4742-98 filter for FITC objective Nikon 2.8×) and analysis software (WIT5.3, Logical vision).

CGRP release = details: after electrical stimulation of the trigeminal ganglion; cited from earlier work

Compound: CC1CCN(CC[C@H]2CCCN2S(=O)(=O)c2cccc(O)c2)CC1 [SB-269970]
- inhibition of neurogenic inflammation / reduction of protein extravasation [1]: Inhibition of neurogenic inflammation
- release of CGRP (CGRP release): inhibits the release of CGRP
- human coronary artery contraction (human coronary artery): does not induce human coronary artery contraction
